We go through 22 compounds from patent US10040781B2, “Tank-binding kinase inhibitor compounds” (Gilead Sciences, Inc., priority 2014, dated 2018).

One may read the IC50 as the midpoint of a concentration-inhibition curve.

For one assay, the target named is IKKε (Homo sapiens (Human), UniProt Q14164). Put plainly: IKKε TR-FRET enzymatic assay. As to conditions: read-out: IKKe IC50. The assay is classed as biochemical.
For the next assay, the target named is TBK1 (Homo sapiens (Human), UniProt Q9UHD2). The assay is described as follows: TBK1 TR-FRET enzymatic assay.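 Further: phosphorylation of a biotinylated Ser/Thr peptide by purified full-length recombinant TBK1, read by TR-FRET after 240 min at 25 °C, IC50 is the geometric mean of at least four runs.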
Sequence of TBK1 (Q9UHD2 whole entry): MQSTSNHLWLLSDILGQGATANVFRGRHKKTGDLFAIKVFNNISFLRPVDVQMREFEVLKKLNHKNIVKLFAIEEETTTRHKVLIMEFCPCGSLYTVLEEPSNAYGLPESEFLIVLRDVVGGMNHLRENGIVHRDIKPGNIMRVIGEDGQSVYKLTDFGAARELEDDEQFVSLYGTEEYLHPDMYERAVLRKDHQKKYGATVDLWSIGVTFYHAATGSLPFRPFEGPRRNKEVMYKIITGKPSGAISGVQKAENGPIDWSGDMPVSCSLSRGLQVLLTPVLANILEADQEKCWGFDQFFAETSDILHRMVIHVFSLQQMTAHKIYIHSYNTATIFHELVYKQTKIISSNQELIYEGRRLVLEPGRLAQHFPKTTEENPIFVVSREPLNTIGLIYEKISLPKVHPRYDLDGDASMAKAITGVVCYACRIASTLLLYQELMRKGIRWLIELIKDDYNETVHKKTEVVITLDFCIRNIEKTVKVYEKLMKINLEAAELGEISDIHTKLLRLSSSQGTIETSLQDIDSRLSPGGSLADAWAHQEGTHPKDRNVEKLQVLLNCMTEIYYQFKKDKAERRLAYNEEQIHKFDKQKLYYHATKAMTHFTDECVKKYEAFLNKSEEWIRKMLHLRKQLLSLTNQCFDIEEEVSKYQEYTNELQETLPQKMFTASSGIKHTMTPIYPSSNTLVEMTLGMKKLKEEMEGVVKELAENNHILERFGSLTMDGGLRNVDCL
The target of a further assay is hJAK2 (Homo sapiens (Human), UniProt O60674). Put plainly: hJAK2 LANCE TR-FRET enzymatic assay. The assay is classed as biochemical. The note with it: read-out: JAK2 IC50. (In TR-FRET formats the signal depends on donor and acceptor labels being close together.)
Sequence of hJAK2 (O60674 whole entry): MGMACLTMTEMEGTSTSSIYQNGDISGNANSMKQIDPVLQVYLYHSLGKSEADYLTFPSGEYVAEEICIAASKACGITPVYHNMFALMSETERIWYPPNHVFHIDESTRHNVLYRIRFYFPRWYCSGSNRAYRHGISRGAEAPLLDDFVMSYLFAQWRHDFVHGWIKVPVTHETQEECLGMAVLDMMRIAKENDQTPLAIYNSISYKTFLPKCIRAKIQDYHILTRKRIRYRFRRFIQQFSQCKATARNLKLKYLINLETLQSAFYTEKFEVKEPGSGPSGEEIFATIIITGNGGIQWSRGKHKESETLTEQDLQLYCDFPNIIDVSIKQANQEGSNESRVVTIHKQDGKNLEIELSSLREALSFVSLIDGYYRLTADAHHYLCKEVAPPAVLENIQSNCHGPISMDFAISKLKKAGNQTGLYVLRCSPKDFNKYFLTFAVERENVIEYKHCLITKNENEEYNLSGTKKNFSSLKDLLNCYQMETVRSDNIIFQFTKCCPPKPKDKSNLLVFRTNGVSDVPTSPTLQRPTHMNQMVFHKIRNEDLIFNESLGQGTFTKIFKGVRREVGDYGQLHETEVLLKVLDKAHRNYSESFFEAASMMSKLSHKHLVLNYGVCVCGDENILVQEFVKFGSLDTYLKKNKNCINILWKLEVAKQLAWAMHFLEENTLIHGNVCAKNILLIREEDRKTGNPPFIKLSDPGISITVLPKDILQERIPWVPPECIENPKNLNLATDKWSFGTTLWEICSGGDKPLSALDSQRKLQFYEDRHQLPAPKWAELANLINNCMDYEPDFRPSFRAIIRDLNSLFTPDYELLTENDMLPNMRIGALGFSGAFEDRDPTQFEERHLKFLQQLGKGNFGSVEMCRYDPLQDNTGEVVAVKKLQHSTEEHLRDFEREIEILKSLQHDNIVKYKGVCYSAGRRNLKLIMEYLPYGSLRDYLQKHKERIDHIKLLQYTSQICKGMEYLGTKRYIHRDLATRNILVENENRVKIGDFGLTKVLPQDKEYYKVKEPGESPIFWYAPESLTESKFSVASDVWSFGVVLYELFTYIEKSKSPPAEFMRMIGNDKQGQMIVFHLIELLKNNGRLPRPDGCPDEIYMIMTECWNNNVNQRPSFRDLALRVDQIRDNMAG

Sequence of IKKε (Q14164 whole entry): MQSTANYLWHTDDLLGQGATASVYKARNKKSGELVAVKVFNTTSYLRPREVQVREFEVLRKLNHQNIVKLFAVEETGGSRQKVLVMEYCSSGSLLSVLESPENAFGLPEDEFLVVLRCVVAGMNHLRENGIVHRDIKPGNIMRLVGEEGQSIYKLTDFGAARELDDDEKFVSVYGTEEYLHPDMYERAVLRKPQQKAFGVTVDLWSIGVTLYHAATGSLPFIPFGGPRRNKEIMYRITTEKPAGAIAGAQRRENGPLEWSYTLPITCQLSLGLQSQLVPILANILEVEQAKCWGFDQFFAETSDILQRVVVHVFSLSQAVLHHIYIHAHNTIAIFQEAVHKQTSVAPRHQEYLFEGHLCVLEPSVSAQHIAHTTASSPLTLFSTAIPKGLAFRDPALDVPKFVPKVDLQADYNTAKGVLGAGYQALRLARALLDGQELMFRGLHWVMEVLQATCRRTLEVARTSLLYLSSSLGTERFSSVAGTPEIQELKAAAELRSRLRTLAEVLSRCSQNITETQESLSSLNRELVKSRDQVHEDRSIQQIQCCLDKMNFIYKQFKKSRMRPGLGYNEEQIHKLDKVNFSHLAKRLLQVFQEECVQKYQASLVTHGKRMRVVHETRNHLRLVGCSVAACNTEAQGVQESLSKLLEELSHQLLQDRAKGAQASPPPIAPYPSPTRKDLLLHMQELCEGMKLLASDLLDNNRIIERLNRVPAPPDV

For `C[C@@H]1C[C@@H](Oc2ccc(-c3ncnc(Nc4ccc(N5CCN(C6COC6)CC5)cc4)n3)cc2C#N)CCN1C(=O)[C@@H](C)O` [Example 184, 2-(((2R,4S)-1-((R)-2-hydroxypropanoyl)-2-methylpiperidin-4-yl)oxy)-5-(4-((4-(4-(oxetan-3-yl)piperazin-1-yl)phenyl)amino)-1,3,5-triazin-2-yl)benzonitrile], the half-inhibitory concentration (IC50) is 277 nM at IKKε, 103 nM against TBK1 and no less than 1000 nM on hJAK2.
Taken in the same sequence, the figures for `C[C@H](O)C(=O)N1CC[C@@H](Oc2ccc(-c3ncnc(Nc4ccc(N5CCN(C6COC6)CC5)cc4)n3)cc2C#N)C[C@H]1C` [Example 185, 2-(((2R,4R)-1-((S)-2-hydroxypropanoyl)-2-methylpiperidin-4-yl)oxy)-5-(4-((4-(4-(oxetan-3-yl)piperazin-1-yl)phenyl)amino)-1,3,5-triazin-2-yl)benzonitrile] were 190 nM, 94 nM and no less than 1000 nM.
Take `C[C@@H]1C[C@H](Oc2ccc(-c3ncnc(Nc4ccc(N5CCN(C6COC6)CC5)cc4)n3)cc2C#N)CCN1C(=O)[C@@H](C)O` [Example 186, 2-(((2R,4R)-1-((R)-2-hydroxypropanoyl)-2-methylpiperidin-4-yl)oxy)-5-(4-((4-(4-(oxetan-3-yl)piperazin-1-yl)phenyl)amino)-1,3,5-triazin-2-yl)benzonitrile]: the IC50 at IKKε was 312 nM; against TBK1, 128 nM; at hJAK2 it was no less than 1000 nM.
Regarding `C[C@H]1C[C@@H](Oc2ccc(-c3ncnc(Nc4ccc(N5CCN(C6COC6)CC5)cc4)n3)cc2C#N)CCN1C(=O)CC#N` [Example 187, 2-(((2S,4S)-1-(2-cyanoacetyl)-2-methylpiperidin-4-yl)oxy)-5-(4-((4-(4-(oxetan-3-yl)piperazin-1-yl)phenyl)amino)-1,3,5-triazin-2-yl)benzonitrile], the IC50 turned out to be 13 nM at IKKε, 5 nM against TBK1 and 183 nM at hJAK2.
Regarding `C[C@H]1C[C@@H](Oc2ccc(-c3ncnc(Nc4ccc(N5CCN(C6COC6)CC5)cc4)n3)cc2C#N)CCN1C(=O)c1cnn[nH]1` [Example 188, 2-(((2S,4S)-2-methyl-1-(1H-1,2,3-triazole-5-carbonyl)piperidin-4-yl)oxy)-5-(4-((4-(4-(oxetan-3-yl)piperazin-1-yl)phenyl)amino)-1,3,5-triazin-2-yl)benzonitrile], the results for the 50% inhibitory concentration (IC50) on IKKε, against TBK1 and at hJAK2 were 5 nM, 5 nM and 224 nM, respectively.
With `N#Cc1cc(-c2ncnc(Nc3ccc(N4CCN(C5COC5)CC4)cc3)n2)ccc1OC1CCN(C(=O)c2ccc[nH]2)CC1` [Example 190, 2-((1-(1H-pyrrole-2-carbonyl)piperidin-4-yl)oxy)-5-(4-((4-(4-(oxetan-3-yl)piperazin-1-yl)phenyl)amino)-1,3,5-triazin-2-yl)benzonitrile], the concentration for half-maximal inhibition (IC50) on IKKε is 15 nM; on TBK1, 3 nM; on hJAK2, no less than 1000 nM.
Taken in the same sequence, the figures for `N#Cc1cc(-c2ncnc(Nc3ccc(N4CCN(C5COC5)CC4)cc3)n2)ccc1OC1CCN(C(=O)c2cc[nH]c2)CC1` [Example 191, 2-((1-(1H-pyrrole-3-carbonyl)piperidin-4-yl)oxy)-5-(4-((4-(4-(oxetan-3-yl)piperazin-1-yl)phenyl)amino)-1,3,5-triazin-2-yl)benzonitrile] were 226 nM, 67 nM and no less than 1000 nM.
`C[C@H]1CN(C(=O)CO)C[C@@H]1Oc1ccc(-c2ncnc(Nc3ccc(N4CCN(C5COC5)CC4)cc3)n2)cc1C#N` [Example 192, 2-(((3R,4S)-1-(2-hydroxyacetyl)-4-methylpyrrolidin-3-yl)oxy)-5-(4-((4-(4-(oxetan-3-yl)piperazin-1-yl)phenyl)amino)-1,3,5-triazin-2-yl)benzonitrile]: the IC50 was 30 nM on IKKε, 8 nM against TBK1 and no less than 1000 nM at hJAK2.
Take `N#Cc1cc(-c2ncnc(Nc3ccc(N4CCN(C5COC5)CC4)cc3)n2)ccc1O[C@@H]1CN(C(=O)CO)C[C@H]1F` [Example 193, 2-(((3R,4R)-4-fluoro-1-(2-hydroxyacetyl)pyrrolidin-3-yl)oxy)-5-(4-((4-(4-(oxetan-3-yl)piperazin-1-yl)phenyl)amino)-1,3,5-triazin-2-yl)benzonitrile]: the IC50 was 48 nM on IKKε, 14 nM against TBK1 and no less than 1000 nM at hJAK2.
For `N#Cc1cc(-c2ncnc(Nc3ccc(N4CCN(C5COC5)CC4)cc3)n2)ccc1OC1CNCC1(F)F` (stereo not drawn) [Example 194, 2-((4,4-difluoropyrrolidin-3-yl)oxy)-5-(4-((4-(4-(oxetan-3-yl)piperazin-1-yl)phenyl)amino)-1,3,5-triazin-2-yl)benzonitrile], the IC50 at IKKε came out at 29 nM; against TBK1 it was 6 nM; on hJAK2, 308 nM.
In the same order, the values of `CS(=O)(=O)N1CC[C@@H](Oc2ccc(-c3ncnc(Nc4ccc(N5CCN(C6COC6)CC5)cc4)n3)cc2C#N)C1` [Example 197, (R)-2-((1-(methylsulfonyl)pyrrolidin-3-yl)oxy)-5-(4-((4-(4-(oxetan-3-yl)piperazin-1-yl)phenyl)amino)-1,3,5-triazin-2-yl)benzonitrile] are 79 nM, 26 nM and 173 nM.
Taken in the same sequence, the figures for `C[C@H](O)C(=O)N1CC(Oc2ccc(-c3ncnc(Nc4ccc(N5CCN(C6COC6)CC5)cc4)n3)cc2C#N)C(F)(F)C1` (stereo partly drawn) [Example 198, 2-((4,4-difluoro-1-((S)-2-hydroxypropanoyl)pyrrolidin-3-yl)oxy)-5-(4-((4-(4-(oxetan-3-yl)piperazin-1-yl)phenyl)amino)-1,3,5-triazin-2-yl)benzonitrile] were 68 nM, 10 nM and 265 nM.
Taken in the same sequence, the figures for `N#Cc1cc(-c2ncnc(Nc3ccc(N4CCN(C5COC5)CC4)cc3)n2)ccc1O[C@@H]1CCC(=O)NC1` [Example 199, (R)-5-(4-((4-(4-(oxetan-3-yl)piperazin-1-yl)phenyl)amino)-1,3,5-triazin-2-yl)-2-((6-oxopiperidin-3-yl)oxy)benzonitrile] were 6 nM, 4 nM and 200 nM.
For `N#Cc1cc(-c2ncnc(Nc3ccc(N4CCN(C5COC5)CC4)cc3)n2)ccc1N1CC[C@@H](F)C1` [Example 200, (R)-2-(3-fluoropyrrolidin-1-yl)-5-(4-((4-(4-(oxetan-3-yl)piperazin-1-yl)phenyl)amino)-1,3,5-triazin-2-yl)benzonitrile], the IC50 at IKKε stood at 7 nM; against TBK1 it was 3 nM; on hJAK2 it was 109 nM.
In the same order, the values of `N#Cc1cc(-c2ncnc(Nc3ccc(N4CCN(C5COC5)CC4)cc3)n2)ccc1N1CC[C@H](F)C1` [Example 201, (S)-2-(3-fluoropyrrolidin-1-yl)-5-(4-((4-(4-(oxetan-3-yl)piperazin-1-yl)phenyl)amino)-1,3,5-triazin-2-yl)benzonitrile] are 5 nM, 1 nM and 69 nM.
For `N#Cc1cc(-c2ncnc(Nc3ccc(N4CCN(C5COC5)CC4)cc3)n2)ccc1N1CC[C@@H](O)C1` [Example 202, (R)-2-(3-hydroxypyrrolidin-1-yl)-5-(4-((4-(4-(oxetan-3-yl)piperazin-1-yl)phenyl)amino)-1,3,5-triazin-2-yl)benzonitrile], the half-maximal inhibitory concentration (IC50) on IKKε worked out at 13 nM; against TBK1, 3 nM; on hJAK2, 192 nM.
Taken in the same sequence, the figures for `N#Cc1cc(-c2ncnc(Nc3ccc(N4CCN(C5COC5)CC4)cc3)n2)ccc1N1CC[C@H](O)C1` [Example 203, (S)-2-(3-hydroxypyrrolidin-1-yl)-5-(4-((4-(4-(oxetan-3-yl)piperazin-1-yl)phenyl)amino)-1,3,5-triazin-2-yl)benzonitrile] were 27 nM, 7 nM and 315 nM.
In the case of `C[C@@H]1C[C@@H](O)CN1c1ccc(-c2ncnc(Nc3ccc(N4CCN(C5COC5)CC4)cc3)n2)cc1C#N` [Example 204, 2-((2R,4R)-4-hydroxy-2-methylpyrrolidin-1-yl)-5-(4-((4-(4-(oxetan-3-yl)piperazin-1-yl)phenyl)amino)-1,3,5-triazin-2-yl)benzonitrile], the results for the IC50 on IKKε, against TBK1 and at hJAK2 were 18 nM, 1 nM and 47 nM, respectively.
Taken in the same sequence, the figures for `C[C@H]1C[C@@H](O)CN1c1ccc(-c2ncnc(Nc3ccc(N4CCN(C5COC5)CC4)cc3)n2)cc1C#N` [Example 205, 2-((2S,4R)-4-hydroxy-2-methylpyrrolidin-1-yl)-5-(4-((4-(4-(oxetan-3-yl)piperazin-1-yl)phenyl)amino)-1,3,5-triazin-2-yl)benzonitrile] were 17 nM, 1 nM and 51 nM.
`N#Cc1cc(-c2ncnc(Nc3ccc(N4CCN(C5COC5)CC4)cc3)n2)ccc1N1CCC2(COC2)C1` [Example 206, 5-(4-((4-(4-(oxetan-3-yl)piperazin-1-yl)phenyl)amino)-1,3,5-triazin-2-yl)-2-(2-oxa-6-azaspiro[3.4]octan-6-yl)benzonitrile]: the IC50 on IKKε amounted to 20 nM; at TBK1, 12 nM; at hJAK2, 236 nM.
In the same order, the values of `N#Cc1cc(-c2ncnc(Nc3ccc(N4CCN(C5COC5)CC4)cc3)n2)ccc1N1CCC2(CCO2)C1` (stereo not drawn) [Example 207, 5-(4-((4-(4-(oxetan-3-yl)piperazin-1-yl)phenyl)amino)-1,3,5-triazin-2-yl)-2-(1-oxa-6-azaspiro[3.4]octan-6-yl)benzonitrile] are 128 nM, 38 nM and 258 nM.
Taken in the same sequence, the figures for `N#Cc1cc(-c2ncnc(Nc3ccc(N4CCN(C5COC5)CC4)cc3)n2)ccc1N1CCC2(C1)OCCO2` [Example 208, 5-(4-((4-(4-(oxetan-3-yl)piperazin-1-yl)phenyl)amino)-1,3,5-triazin-2-yl)-2-(1,4-dioxa-7-azaspiro[4.4]nonan-7-yl)benzonitrile] were 283 nM, 64 nM and 330 nM.
